Experimental data reported in publication PMC7366380, “Discovery of a Potent and Selective Covalent Inhibitor and Activity-Based Probe for the Deubiquitylating Enzyme UCHL1, with Antifibrotic Activity” (Journal of the American Chemical Society, 2020).
Several values for one entry are separate records, joined by “and”; a condition that tells them apart may be missing. Identical values can stand only once.

Key:
Assay in all cases: In-cell proteome-wide competitive ABPP, HEK293: other DUBs and proteins
[1] = target: DUBs and other proteins in HEK293 cells (Homo sapiens, UniProt Q92905); conditions: for Log2 reporter intensity values, COPS5: TMT replicates; for Log2 reporter intensity values: COPS5: competition with ABP 2, DMSO substract (FC); for Log2 reporter intensity values: COPS5 / Log2 reporter intensity values: replicates A-C; for Log2 t-test Difference / Log2 reporter intensity values: COPS5
[2] = target: T1, DUBs and other proteins in HEK293 cells (Homo sapiens, UniProt Q96K76); conditions: replicates A-C; for Log2 reporter intensity values: USP47: competition with ABP 2, DMSO substract (FC); for Log2 reporter intensity values: USP47, DMSO subtracted
T1 sequence (Q96K76 1-1375): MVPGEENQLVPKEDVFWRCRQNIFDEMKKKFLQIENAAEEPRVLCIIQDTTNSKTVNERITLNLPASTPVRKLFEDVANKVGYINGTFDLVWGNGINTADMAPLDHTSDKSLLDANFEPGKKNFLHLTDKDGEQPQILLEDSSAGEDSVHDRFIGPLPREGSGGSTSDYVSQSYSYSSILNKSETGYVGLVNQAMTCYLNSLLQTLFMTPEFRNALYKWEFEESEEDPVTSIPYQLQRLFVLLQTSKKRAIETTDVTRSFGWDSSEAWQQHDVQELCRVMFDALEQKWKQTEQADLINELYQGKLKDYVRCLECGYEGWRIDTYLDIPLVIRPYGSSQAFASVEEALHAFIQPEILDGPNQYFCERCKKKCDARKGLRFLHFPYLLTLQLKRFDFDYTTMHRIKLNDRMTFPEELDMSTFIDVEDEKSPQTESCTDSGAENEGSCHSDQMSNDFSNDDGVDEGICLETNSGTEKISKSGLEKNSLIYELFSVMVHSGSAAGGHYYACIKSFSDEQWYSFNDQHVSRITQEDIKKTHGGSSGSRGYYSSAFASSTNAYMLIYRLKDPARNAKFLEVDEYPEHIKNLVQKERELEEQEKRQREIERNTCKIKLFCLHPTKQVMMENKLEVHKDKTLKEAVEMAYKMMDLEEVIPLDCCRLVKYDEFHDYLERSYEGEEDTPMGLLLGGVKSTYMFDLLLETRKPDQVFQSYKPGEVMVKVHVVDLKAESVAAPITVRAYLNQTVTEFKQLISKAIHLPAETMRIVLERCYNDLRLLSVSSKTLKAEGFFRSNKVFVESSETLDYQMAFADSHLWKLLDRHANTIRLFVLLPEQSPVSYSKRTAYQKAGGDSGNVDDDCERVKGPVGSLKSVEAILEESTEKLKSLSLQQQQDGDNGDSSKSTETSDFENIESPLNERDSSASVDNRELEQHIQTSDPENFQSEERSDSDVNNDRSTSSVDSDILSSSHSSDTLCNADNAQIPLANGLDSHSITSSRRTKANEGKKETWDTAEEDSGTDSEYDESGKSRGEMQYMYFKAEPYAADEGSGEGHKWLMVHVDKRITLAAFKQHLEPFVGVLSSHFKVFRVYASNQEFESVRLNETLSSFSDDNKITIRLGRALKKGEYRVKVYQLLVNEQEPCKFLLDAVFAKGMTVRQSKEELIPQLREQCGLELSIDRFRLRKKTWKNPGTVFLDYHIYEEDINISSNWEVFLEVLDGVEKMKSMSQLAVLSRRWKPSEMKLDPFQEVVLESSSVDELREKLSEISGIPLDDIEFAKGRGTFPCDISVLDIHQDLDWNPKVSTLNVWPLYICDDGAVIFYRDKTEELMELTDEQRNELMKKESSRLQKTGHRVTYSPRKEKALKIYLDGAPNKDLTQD

[3] = target: DUBs and other proteins in HEK293 cells (Homo sapiens, UniProt Q7L5N1); conditions: for Log2 reporter intensity values, COPS6: TMT replicates; for Log2 reporter intensity values: COPS6: competition with ABP 2, DMSO substract (FC); for Log2 reporter intensity values: COPS6 / Log2 reporter intensity values: replicates A-C; for Log2 t-test Difference / Log2 reporter intensity values: COPS6
[4] = target: T2, DUBs and other proteins in HEK293 cells (Homo sapiens, UniProt Q9Y5K5); conditions: replicates A-C; for Log2 reporter intensity values: UCHL5: competition with ABP 2, DMSO substract (FC); for Log2 reporter intensity values: UCHL5, DMSO subtracted
T2 sequence (Q9Y5K5 1-329): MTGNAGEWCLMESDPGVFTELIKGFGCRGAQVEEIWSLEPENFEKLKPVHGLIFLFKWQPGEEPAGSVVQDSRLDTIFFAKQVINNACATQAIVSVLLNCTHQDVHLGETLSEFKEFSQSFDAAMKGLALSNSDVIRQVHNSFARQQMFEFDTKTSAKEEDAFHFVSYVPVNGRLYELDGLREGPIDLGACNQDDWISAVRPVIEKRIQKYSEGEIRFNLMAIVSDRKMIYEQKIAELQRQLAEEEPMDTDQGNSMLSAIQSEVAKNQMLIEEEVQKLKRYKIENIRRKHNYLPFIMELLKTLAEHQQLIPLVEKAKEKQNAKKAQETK

[5] = target: DUBs and other proteins in HEK293 cells (Homo sapiens, UniProt P51784); conditions: replicates A-C; for Log2 reporter intensity values: USP11: competition with ABP 2, DMSO substract (FC); for Log2 reporter intensity values: USP11, DMSO subtracted
[6] = target: DUBs and other proteins in HEK293 cells (Homo sapiens, UniProt Q9UPU5); conditions: replicates A-C; for Log2 reporter intensity values: USP24: competition with ABP 2, DMSO substract (FC); for Log2 reporter intensity values: USP24, DMSO subtracted
[7] = 1 μM 3 (60 min) + 20 nM ABP 2 (10 min), All values
[8] = 1 μM 3 (60 min) + 20 nM ABP 2 (10 min), DMSO subtracted
[9] = 4 μM 3 (60 min) + 20 nM ABP 2 (10 min), All values
[10] = 4 μM 3 (60 min) + 20 nM ABP 2 (10 min), DMSO subtracted

DUBs and other proteins in HEK293 cells (Homo sapiens, UniProt P51784), sequence (P51784 whole entry): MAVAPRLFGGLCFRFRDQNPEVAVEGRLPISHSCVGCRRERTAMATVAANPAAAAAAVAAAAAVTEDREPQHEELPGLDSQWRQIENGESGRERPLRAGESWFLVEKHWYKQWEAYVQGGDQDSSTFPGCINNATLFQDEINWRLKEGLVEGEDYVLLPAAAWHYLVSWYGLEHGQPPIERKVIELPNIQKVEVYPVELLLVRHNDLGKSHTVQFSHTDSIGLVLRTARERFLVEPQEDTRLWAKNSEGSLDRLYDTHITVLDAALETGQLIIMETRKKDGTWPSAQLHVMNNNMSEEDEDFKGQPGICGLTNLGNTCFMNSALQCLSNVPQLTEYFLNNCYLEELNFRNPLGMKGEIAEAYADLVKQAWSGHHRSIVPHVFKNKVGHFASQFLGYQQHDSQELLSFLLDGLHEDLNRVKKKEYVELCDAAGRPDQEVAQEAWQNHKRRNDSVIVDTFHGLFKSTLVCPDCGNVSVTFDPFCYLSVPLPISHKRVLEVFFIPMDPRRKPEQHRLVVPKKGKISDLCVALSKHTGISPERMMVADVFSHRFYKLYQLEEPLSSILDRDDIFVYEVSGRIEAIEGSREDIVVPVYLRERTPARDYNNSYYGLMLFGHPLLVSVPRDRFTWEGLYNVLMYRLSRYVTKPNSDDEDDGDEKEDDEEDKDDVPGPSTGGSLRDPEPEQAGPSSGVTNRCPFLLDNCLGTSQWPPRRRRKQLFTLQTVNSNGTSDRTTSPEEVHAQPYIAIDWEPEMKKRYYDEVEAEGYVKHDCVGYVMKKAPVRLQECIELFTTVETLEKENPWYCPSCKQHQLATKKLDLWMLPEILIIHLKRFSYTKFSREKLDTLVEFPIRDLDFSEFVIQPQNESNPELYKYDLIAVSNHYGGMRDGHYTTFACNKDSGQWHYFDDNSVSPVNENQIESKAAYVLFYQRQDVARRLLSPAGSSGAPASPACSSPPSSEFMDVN
DUBs and other proteins in HEK293 cells (Homo sapiens, UniProt Q9UPU5), sequence (Q9UPU5 whole entry): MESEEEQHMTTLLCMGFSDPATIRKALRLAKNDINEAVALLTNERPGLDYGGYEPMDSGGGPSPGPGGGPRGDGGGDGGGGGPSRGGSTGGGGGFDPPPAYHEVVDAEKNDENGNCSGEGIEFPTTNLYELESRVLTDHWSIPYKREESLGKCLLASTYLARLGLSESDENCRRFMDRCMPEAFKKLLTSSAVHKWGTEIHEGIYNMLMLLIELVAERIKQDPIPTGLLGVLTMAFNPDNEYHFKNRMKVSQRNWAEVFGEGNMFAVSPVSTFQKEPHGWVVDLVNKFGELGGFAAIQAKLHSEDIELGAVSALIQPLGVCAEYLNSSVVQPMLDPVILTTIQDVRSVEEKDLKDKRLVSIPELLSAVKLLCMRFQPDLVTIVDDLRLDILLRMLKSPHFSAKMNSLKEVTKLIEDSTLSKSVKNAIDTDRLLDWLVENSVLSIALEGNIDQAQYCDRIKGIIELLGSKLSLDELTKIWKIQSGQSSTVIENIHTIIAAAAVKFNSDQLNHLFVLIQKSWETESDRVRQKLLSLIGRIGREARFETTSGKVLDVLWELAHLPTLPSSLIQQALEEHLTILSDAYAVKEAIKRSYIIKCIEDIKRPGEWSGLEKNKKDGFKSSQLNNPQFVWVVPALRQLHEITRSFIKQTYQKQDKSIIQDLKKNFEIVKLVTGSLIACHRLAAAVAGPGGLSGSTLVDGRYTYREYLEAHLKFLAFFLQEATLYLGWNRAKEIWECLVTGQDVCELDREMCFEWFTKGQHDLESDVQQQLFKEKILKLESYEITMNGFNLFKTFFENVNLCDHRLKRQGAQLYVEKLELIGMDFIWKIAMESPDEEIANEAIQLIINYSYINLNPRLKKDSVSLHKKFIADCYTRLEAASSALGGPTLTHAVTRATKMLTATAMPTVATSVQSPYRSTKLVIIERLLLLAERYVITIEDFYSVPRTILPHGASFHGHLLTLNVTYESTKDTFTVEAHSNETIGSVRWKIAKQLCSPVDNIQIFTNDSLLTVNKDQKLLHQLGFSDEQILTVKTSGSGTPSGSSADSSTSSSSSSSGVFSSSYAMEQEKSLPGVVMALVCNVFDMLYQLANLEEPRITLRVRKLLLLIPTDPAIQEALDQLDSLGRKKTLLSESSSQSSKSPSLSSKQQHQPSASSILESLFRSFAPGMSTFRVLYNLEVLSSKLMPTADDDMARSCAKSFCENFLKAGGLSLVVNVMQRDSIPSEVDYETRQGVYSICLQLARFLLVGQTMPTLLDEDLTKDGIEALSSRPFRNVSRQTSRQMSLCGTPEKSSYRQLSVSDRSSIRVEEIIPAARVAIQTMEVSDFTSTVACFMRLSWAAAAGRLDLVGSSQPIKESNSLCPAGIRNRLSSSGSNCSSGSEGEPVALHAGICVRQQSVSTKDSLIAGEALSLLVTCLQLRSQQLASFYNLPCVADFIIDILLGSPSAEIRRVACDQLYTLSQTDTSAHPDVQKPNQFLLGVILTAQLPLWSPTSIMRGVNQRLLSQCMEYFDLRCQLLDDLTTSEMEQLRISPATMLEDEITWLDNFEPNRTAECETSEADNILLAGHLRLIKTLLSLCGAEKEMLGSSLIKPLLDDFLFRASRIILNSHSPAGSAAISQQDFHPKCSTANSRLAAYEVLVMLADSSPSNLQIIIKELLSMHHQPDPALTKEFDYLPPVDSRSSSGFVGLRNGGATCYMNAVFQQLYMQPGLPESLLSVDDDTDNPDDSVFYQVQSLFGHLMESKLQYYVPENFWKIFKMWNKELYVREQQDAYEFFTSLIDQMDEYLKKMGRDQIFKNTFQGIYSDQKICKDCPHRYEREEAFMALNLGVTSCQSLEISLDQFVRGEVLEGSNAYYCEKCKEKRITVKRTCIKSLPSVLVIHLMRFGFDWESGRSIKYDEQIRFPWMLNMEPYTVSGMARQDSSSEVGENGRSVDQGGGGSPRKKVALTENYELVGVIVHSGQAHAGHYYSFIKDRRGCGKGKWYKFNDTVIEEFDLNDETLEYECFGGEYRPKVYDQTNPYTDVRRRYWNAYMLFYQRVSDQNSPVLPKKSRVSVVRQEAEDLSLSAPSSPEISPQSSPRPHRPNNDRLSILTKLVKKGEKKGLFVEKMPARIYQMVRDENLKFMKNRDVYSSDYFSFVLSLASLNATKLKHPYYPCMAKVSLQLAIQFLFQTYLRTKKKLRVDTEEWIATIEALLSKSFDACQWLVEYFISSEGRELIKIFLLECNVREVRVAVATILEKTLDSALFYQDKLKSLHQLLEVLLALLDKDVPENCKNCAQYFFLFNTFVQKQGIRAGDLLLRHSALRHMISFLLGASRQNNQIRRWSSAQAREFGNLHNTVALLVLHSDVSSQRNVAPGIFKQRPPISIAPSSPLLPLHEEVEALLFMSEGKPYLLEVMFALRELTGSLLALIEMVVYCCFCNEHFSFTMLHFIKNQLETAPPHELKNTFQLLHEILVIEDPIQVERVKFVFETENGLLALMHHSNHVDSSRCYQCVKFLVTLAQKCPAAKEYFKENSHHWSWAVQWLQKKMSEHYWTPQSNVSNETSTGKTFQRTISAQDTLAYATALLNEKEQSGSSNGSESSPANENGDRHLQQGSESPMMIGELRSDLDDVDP
DUBs and other proteins in HEK293 cells (Homo sapiens, UniProt Q92905), sequence (Q92905 whole entry): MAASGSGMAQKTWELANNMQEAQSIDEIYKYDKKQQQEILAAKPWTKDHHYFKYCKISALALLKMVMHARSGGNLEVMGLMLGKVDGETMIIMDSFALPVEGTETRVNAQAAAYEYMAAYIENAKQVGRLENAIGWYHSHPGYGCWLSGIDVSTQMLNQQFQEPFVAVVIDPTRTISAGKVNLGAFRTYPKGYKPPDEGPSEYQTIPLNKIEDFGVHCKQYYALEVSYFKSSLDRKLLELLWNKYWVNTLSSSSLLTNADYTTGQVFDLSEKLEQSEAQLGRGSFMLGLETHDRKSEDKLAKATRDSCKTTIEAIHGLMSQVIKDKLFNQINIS
DUBs and other proteins in HEK293 cells (Homo sapiens, UniProt Q7L5N1), sequence (Q7L5N1 whole entry): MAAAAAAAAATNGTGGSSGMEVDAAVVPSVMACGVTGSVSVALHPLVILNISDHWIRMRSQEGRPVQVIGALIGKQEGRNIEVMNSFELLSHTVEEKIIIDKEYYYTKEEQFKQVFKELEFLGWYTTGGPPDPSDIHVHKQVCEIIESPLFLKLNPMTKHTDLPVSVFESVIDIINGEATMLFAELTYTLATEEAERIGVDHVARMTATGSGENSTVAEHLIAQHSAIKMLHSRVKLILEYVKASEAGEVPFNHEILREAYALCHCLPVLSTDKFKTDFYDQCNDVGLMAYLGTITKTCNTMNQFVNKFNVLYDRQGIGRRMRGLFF

Log2 reporter intensity values, COPS5 [1, 7]: 0.001825 and 0.1477 and 0.03353 | Log2 reporter intensity values, COPS5 [1, 8]: 0.05994 and 0.2058 and 0.09165 | Log2 reporter intensity values, COPS5 [1, 9]: -0.03978 and -0.2063 and -0.1486 | Log2 reporter intensity values, COPS5 [1, 10]: 0.01834 and -0.1481 and -0.09052 | Log2 reporter intensity values: COPS5 ([1]; 3 at 1 μM): 1.042 and 1.153 and 1.066 | Log2 reporter intensity values: COPS5 ([1]; 3 at 4 μM): 1.013 and 0.9024 and 0.9392 | Log2 t-test Difference ([1]; 3 - 1 μM): -0.04319 | Log2 t-test Difference ([1]; 3 - 4 μM): -0.2358 | Log2 reporter intensity values ([1]; 3_1 μM, DMSO subtracted): 0.04234 and 0.1532 and 0.0655 | Log2 reporter intensity values ([1]; 3_4 μM, DMSO subtracted): 0.01271 and -0.09767 and -0.0609 | Log2 reporter intensity values ([1]; 3 at 1 μM, DMSO subtracted): 0.05994 and 0.2058 and 0.09165 | Log2 reporter intensity values ([1]; 3 at 4 μM, DMSO subtracted): 0.01834 and -0.1481 and -0.09052 | Log2 reporter intensity values: USP47 ([2]; 3 at 1 μM): 1.001 and 0.9758 and 1.097 | Log2 reporter intensity values: USP47 ([2]; 3 at 4 μM): 0.9921 and 1.112 and 1.049 | Log2 reporter intensity values ([2]; 3_1 μM): 0.0008917 and -0.02426 and 0.09736 | Log2 reporter intensity values ([2]; 3_4 μM): -0.008057 and 0.1123 and 0.04861 | Log2 reporter intensity values ([2]; 3 at 1 μM): 0.001442 and -0.03527 and 0.1342 | Log2 reporter intensity values ([2]; 3 at 4 μM): -0.01151 and 0.1537 and 0.06863 | Log2 reporter intensity values, COPS6 [3, 7]: 0.04099 and 0.07831 and 0.06581 | Log2 reporter intensity values, COPS6 [3, 8]: 0.02857 and 0.06589 and 0.0534 | Log2 reporter intensity values, COPS6 [3, 9]: -0.1551 and -0.06324 and -0.1331 | Log2 reporter intensity values, COPS6 [3, 10]: -0.1675 and -0.07565 and -0.1455 | Log2 reporter intensity values: COPS6 ([3]; 3 at 1 μM): 1.02 and 1.047 and 1.038 | Log2 reporter intensity values: COPS6 ([3]; 3 at 4 μM): 0.8904 and 0.9489 and 0.9041 | Log2 t-test Difference ([3]; 3 - 1 μM): 0.00565 | Log2 t-test Difference ([3]; 3 - 4 μM): -0.1732 | Log2 reporter intensity values ([3]; 3_1 μM, DMSO subtracted): 0.01989 and 0.04662 and 0.0376 | Log2 reporter intensity values ([3]; 3_4 μM, DMSO subtracted): -0.1098 and -0.0512 and -0.09603 | Log2 reporter intensity values ([3]; 3 at 1 μM, DMSO subtracted): 0.02857 and 0.06589 and 0.0534 | Log2 reporter intensity values ([3]; 3 at 4 μM, DMSO subtracted): -0.1675 and -0.07565 and -0.1455 | Log2 reporter intensity values: UCHL5 ([4]; 3 at 1 μM): 1.151 and 1.125 and 1.14 | Log2 reporter intensity values: UCHL5 ([4]; 3 at 4 μM): 0.8761 and 0.9259 and 0.9496 | Log2 reporter intensity values ([4]; 3_1 μM): 0.1503 and 0.124 and 0.1395 | Log2 reporter intensity values ([4]; 3_4 μM): -0.1246 and -0.07482 and -0.05103 | Log2 reporter intensity values ([4]; 3 at 1 μM): 0.2029 and 0.1696 and 0.1893 | Log2 reporter intensity values ([4]; 3 at 4 μM): -0.1908 and -0.1111 and -0.07454 | Log2 reporter intensity values: USP11 ([5]; 3 at 1 μM): 1.117 and 1.058 and 1.05 | Log2 reporter intensity values: USP11 ([5]; 3 at 4 μM): 0.8158 and 0.9889 and 0.9502 | Log2 reporter intensity values ([5]; 3_1 μM): 0.1164 and 0.05763 and 0.04999 | Log2 reporter intensity values ([5]; 3_4 μM): -0.1845 and -0.01139 and -0.05014 | Log2 reporter intensity values ([5]; 3 at 1 μM): 0.1593 and 0.08129 and 0.07083 | Log2 reporter intensity values ([5]; 3 at 4 μM): -0.2937 and -0.01604 and -0.0737 | Log2 reporter intensity values: USP24 ([6]; 3 at 1 μM): 1.062 and 1.01 and 1.397 | Log2 reporter intensity values: USP24 ([6]; 3 at 4 μM): 1.531 and 1.061 and 0.663 | Log2 reporter intensity values ([6]; 3_1 μM): 0.05897 and 0.007121 and 0.3935 | Log2 reporter intensity values ([6]; 3_4 μM): 0.5273 and 0.05764 and -0.3403 | Log2 reporter intensity values ([6]; 3 at 1 μM): 0.08723 and 0.01505 and 0.4822 | Log2 reporter intensity values ([6]; 3 at 4 μM): 0.6141 and 0.08543 and -0.5928
SMILES: N#CN1CCC[C@@H]1C(=O)N1CCc2c(-c3c[nH]c4ncccc34)cccc21 [Compound 3]
